{"source": "patent US10849875B2", "about": "“Cancer specific lipid targeted peptidomimetics” (University of Houston System, priority 2015, dated 2020)", "key": {"H460 xenografts": {"tested_on": "H460 xenografts", "test": "Inhibition of growth of H460 lung cancer xenograft", "format": "in vivo, mice", "conditions": "for tumor size reduction: H460 in nude mice, daily dose of 0.5 mg/mL", "description": "Whether PPS1D1 would inhibit tumor growth in a murine model was examined. H460 cells were implanted in nude mice. Tumors were allowed grow until it reach […]. These xenografts were then treated with a daily dose of […] in four different groups that consist of PPS1D1 alone, docetaxel alone, PPS1D1 and docetaxel together or with the control peptoid (PC462D1) alone. Docetaxel is a standard chemotherapeutic treatment for non-small cell carcinoma. The activity of PPSD1 and its ability to work as a combination treatment were examined. […] This effect was extremely potent and the tumor growth was completely controlled. […] It has been reported that chemotherapy and radiation therapy increase the PS flipping in tumor microenvironment. Therefore, Docetaxel might have helped improve binding of PPS1D1 on cancer cell surface that is now displaying an increased amount of PS to be targeted. After the standard chemotherapy and radiation therapy, the target PS is highly abundant for the drug to recognize and attack.\nThe effect of PPS1D1 on the growth of H460 xenografts implanted in NOD/SCID immunodeficient mice was examined. Immunodeficient animals were chosen to facilitate the growth of human tumor xenografts. […] Therapy with a control peptoid (PC462D1, 0.25 mg/mouse, 3×/week ip), PPS1D1 (0.25 mg/mouse, 3×/week ip), docetaxel (0.5 mg/kg, 2×/week, ip) or the combination of PPS1D1+docetaxel was initiated when tumors were ˜100 mm3 in volume. […] Tumor tissue was harvested after 4 weeks of therapy and assessed for cell proliferation and apoptosis by immunohistochemistry. […] It is clear from studies with bavituximab that standard chemotherapy (e.g., taxanes) increases the exposure of PS resulting in elevated binding of the PS targeting agent. A similar mechanism can underlie the enhanced activity of docetaxel and PPS1D1.\nAll animals were housed in a pathogen-free facility with continuous access to food and water. Mice were purchased from the core breeding facility at UT Southwestern. Six to eight-week-old female NOD/SCID mice were injected with 2.5×10^6 H460 cells subcutaneously. Tumor volume was followed by twice weekly measurements with Vernier calipers. Animals were randomized and treatment was initiated with mean tumor volume of each group was 100 mm3. Four different groups used were: (I) control PC462D1, (II) PPS1D1, (III) docetaxel, and (IV) combination of PPS1D1+docetaxel. Mice (n=8/group) were treated with PPS1D1 or PC462D1 in saline by ip injection at a dose of 0.25 mg/mouse, 3 times per week on a M-W-F schedule. Docetaxel from the UT Southwestern Clinical pharmacy was diluted in saline and delivered 2×/week ip at 5 mg/kg. Animals were sacrificed after 4 weeks of therapy. Tumor tissue was snap frozen, sectioned and stained with antibodies specific for phospho-Histone H3 (Millipore, #06-570) and cleaved caspase 3 (Cell Signaling, #9664). Reactivity was developed with appropriate fluorescently conjugated secondary antibodies (Jackson ImmunoResearch) and mounted with Prolong Gold with DAPI (Invitrogen), coverslipped and evaluated by fluorescence microscopy."}, "[1]": {"test": "In vitro cellular activity of PS targeted peptoid derivatives", "format": "cell-based", "description": "Peptoid compounds include but are not limited to PPS1D1 (FIG. 15), PPS1-DE2 (FIG. 16), PPS1-RD1 (FIG. 17), PPS1-2P3H (FIG. 18), PPS1-4P3H (FIG. 19), PPS1-Tri-1 (FIG. 20), PPS1-Tet-1 (FIG. 21), and PPS2D1 (FIG. 22). […] PPS1D1 has a validated in vivo animal tumor burden activity."}, "MTD studies of PPS1D1": {"test": "MTD studies of PPS1D1", "design": "species or system mice", "conditions": "mouse, in vivo", "description": "[…] (MTD) studies were performed by injecting PPS1D1 into mice. […] In vivo localization studies were performed with biotinylated versions of PPS1D1 and PC462D1. Animals were injected intravenously with 100 μL of biotinylated PPS1D1 or PC462D1 (500 μg/mL) and sacrificed at 1 and 4 h post injection. Tissue was collected, snap frozen, and sectioned and the presence of the PPS1D1 and PC462D1 determined by streptavidin-Cy3."}, "[2]": {"tested_on": "HCC4017, H460, HCC95, H1693, H1395 lung cancer cell lines", "test": "MTS cell viability assay on series of lung cancer cell lines", "format": "cell-based, human", "description": "In this current study, the target of PPS1D1 is PS and HCC4017 strongly expresses PS. Our next goal was to evaluate the level of PS externalization on other lung cancer cell lines and the activity profile of PPS1D1 on those cell lines. A variety of lung cancer cell lines HCC4017 (lung adenocarcinoma), H460 (large cell lung cancer), H1395 (lung adenocarcinoma), HCC95 (squamous cell lung carcinoma), H1993 (adenocarcinoma; non-small cell lung cancer), H1695 and HBEC30KT (normal bronchial epithelial cells) were treated with fluorescein-labeled Annexin V (FITC-Annexin V) and the bound fluorescein signal was detected using flow cytometry. […] Standard cell viability (MTS) assay by treating these cell lines with PPS1D1 (1 and 20 μM) and 20 μM of a control compound PC462D1 (FIG. 68) in 96-well plates were performed. […] PPS1D1 had no effect on normal HBEC30KT cells at either concentration.\nHCC4017, H460, HCC95, H1693, H1395 and HBEC30KT cells were grown in clear bottom 96 well plates. On second day, lung cancer cells were treated with PPS1, PPS1D1 and control PC462D1 in RPMI medium with 10% FBS containing 3% BSA. HBEC30KT was treated with PPS1, PPS1D1 and control PC462D1 in KSFM media with 3% BSA."}, "[3]": {"tested_on": "HCC4017, H460, H358, H441, H1819, H1993, H2122, MD-MB-231 and PC3 cells", "test": "In vitro cancer cell killing (MTS cell viability assays and FACS studies)", "format": "cell-based, human", "conditions": "lung, breast and prostate cancer cells", "description": "Various derivatives of PPS1 have been developed that have similar and improved activities. FIGS. 15-22, 36-51."}, "HCC4017 xenografts": {"tested_on": "HCC4017 xenografts", "test": "Tumor burden effect on HCC4017 xenografts", "format": "in vivo, mice", "conditions": "initial data, heterogeneous tumors", "description": "The actual tumor burden effects of PPS1D1 on HCC4017 xenografts were studied. The study was planned with 4 groups. […] It took a long time to grow and created a very heterogeneous xenograft population. PPS1D1 treatment was performed, but due to the high heterogeneity of the tumors, most of the mice in every group had to be sacrificed as they reached the maximum allowed limits."}}, "note": "“Also recorded” adds a separate entry of the source. Positions of bridges follow the written chain, without caps; N, C: chain ends. Non-standard residues stand in square brackets, D forms with d. Residues, ends and D or L forms follow the SMILES beside them. Chains are numbered I, II in the order given. Gly(N-piperonyl) = O=C(O)CNCc1ccc2c(c1)OCO2; N(4-MeOBn)Gly = COc1ccc(CNCC(=O)O)cc1; Nrpe = C[C@@H](NCC(=O)O)c1ccccc1; Nlys = NCCCCNCC(=O)O"}
{"smiles": "COc1ccc(CN(CC(=O)N(CCCCN)CC(=O)N[C@@H](CCCCN)C(=O)N[C@H](CCCCN)C(=O)N[C@@H](CCSC)C(=O)NCCCC[C@H](NC(=O)[C@H](CCSC)NC(=O)[C@@H](CCCCN)NC(=O)[C@H](CCCCN)NC(=O)CN(CCCCN)C(=O)CN(Cc2ccc(OC)cc2)C(=O)CN(C(=O)CN(Cc2ccc3c(c2)OCO3)C(=O)CN[C@H](C)c2ccccc2)[C@H](C)c2ccccc2)C(N)=O)C(=O)CN(C(=O)CN(Cc2ccc3c(c2)OCO3)C(=O)CN[C@H](C)c2ccccc2)[C@H](C)c2ccccc2)cc1", "note": "[PPS1D1] (I: H-[Nrpe][Gly(N-piperonyl)][Nrpe][N(4-MeOBn)Gly][Nlys]K[dK]MK-NH2 / II: H-[Nrpe][Gly(N-piperonyl)][Nrpe][N(4-MeOBn)Gly][Nlys]K[dK]M; amide I:9-II:C; N-terminus assumed)", "values": [{"measurement": "tumor growth (tumor volume vs days post therapy initiation)", "setting": "H460 xenografts; H460 in NOD/SCID mice, peptoids 0.25 mg/mouse 3x/week ip, docetaxel 0.5 mg/kg 2x/week ip", "result": "slowed tumor growth"}, {"measurement": "tumor size reduction", "setting": "H460 xenografts", "result": "strong tumor burden effect; also recorded: equally effective in reducing the size of the tumors"}, {"measurement": "tumor size reduction", "setting": "H460 xenografts; listed as PPSD1", "result": "slightly better effect"}, {"measurement": "animal weight loss", "setting": "H460 xenografts; at the doses used", "result": "did not induce animal weight loss"}, {"measurement": "in vitro cellular activity", "setting": "[1]", "result": "validated in vitro cellular activity"}, {"measurement": "MTD", "setting": "MTD studies of PPS1D1; mice bearing subcutaneous HCC4017 xenografts", "result": 1, "unit": "mg/kg"}, {"measurement": "MTD", "setting": "MTD studies of PPS1D1; nontumor bearing animals", "result": 5, "unit": "mg/kg"}, {"measurement": "cytotoxicity on lung cancer cell lines", "setting": "[2]; 1 μM", "result": "not at 1 μM"}, {"measurement": "cytotoxicity on lung cancer cell lines", "setting": "[2]; 20 μM", "result": "strong cytotoxicity"}, {"measurement": "in vitro cancer cell killing activity", "setting": "[3]", "result": "strong in vitro cancer cell killing activity"}, {"measurement": "tumor growth", "setting": "HCC4017 xenografts", "result": "capable of reducing the tumor growth"}]}
